Where two headings read alike, the source gives them in different places.
Key:
[1] = system: Susceptible Musca domestica; test: Glass jar contact bioassay, susceptible (laboratory) house flies
Experimental: Briefly, adult house flies, Musca domestica, are obtained from strains that have been reared in the laboratory of the Entomology and Nematology Department, University of Florida. […] The positive control is exposed to serial dilutions of permethrin. The negative control is not exposed to any chemical compound. The mortality rate is measured after 2-hour, 4-hour, and 24-hour periods. Ataxic flies are considered dead.
(§1) The ability of house flies to recover from insecticidal exposure is also investigated. After a 2-hour exposure, each set of flies is transferred into a separate glass jar. The mortality rate is measured at two time intervals: first, immediately at the transfer (2 hours after the initial exposure), and second, 22 hours after the transfer (24 hours after the initial exposure).
The mortality rate is analyzed using the PROBIT model. The data is adjusted based on the mortality rate in the control set using the Abbott's transformation, and the percent mortality is further analyzed based on ANOVA measurement. The experiment is repeated at least three times. The data is discarded if the mortality rate in the control set exceeds 10%. The LC50 and LC90 values are further determined using the SAS (Cary, N.C., USA) statistical software. For each chemical compound, at least 1280 flies are examined.

[2] = system: Field-collected Musca domestica
Experimental: Briefly, one Musca domestica strain is collected from the University of Florida dairy unit in Alachua County, Florida, U.S.A. (“the Alachua strain”). The other Musca domestica strain is collected from a dairy farm in Gilchrist County, Florida, U.S.A. (“the Gilchrist strain”). Both strains are colonized adults, and are subsequently reared at 27° C. in the laboratory of the Entomology and Nematology Department, University of Florida.
The positive control is exposed to serial dilutions of permethrin. The negative control is not exposed to any chemical compound. 1 mL of insecticide was dissolved in acetone (concentrations between 0.5 and 20 mg mL^−1) in a 60 mL glass jar having a 67.86 cm^2 inside surface area (Wheaton, Millville, N.J.). Jars were allowed to dry for 1 h prior to fly introduction. Flies were held in jars for 2, 4 and 24 h, and fly mortality rate was scored at that time. Sugar water (10%) was provided in all assays, unless stated otherwise. The mortality rate is measured after a 2-hour, 4-hour, and 24-hour period. Ataxic flies are considered dead. The mortality rate and the LC values are determined using the same procedures as is illustrated in Example 2.

Aedes aegypti [3] = settings: On filter paper
Experimental: Briefly, yellow fever mosquito, Ae. aegypti were obtained from strains that have been cultured in the laboratory of the Entomology and Nematology Department, University of Florida.
(§2) The mortality rate is measured after a 2-hour, 4-hour and 24-hour exposure period. Ataxic mosquitoes are considered dead.
as §1, with “Ae. aegypti” for “house flies”, “Ae. aegypti” for “flies”, “separate” for “separate glass”

Aedes aegypti [4] = settings: On camouflage military fabric
Experimental: as §2
as §1, with “Ae. aegypti” for “house flies”, “Ae. aegypti” for “flies”, “separate” for “separate glass”
The mortality rate and the LC values are determined using the same procedures as is illustrated in Example 2.

Musca domestica [5] = settings: M. domestica; formulation on plywood panels at 1.67 mg cm^−2; mortality 24 h after
Experimental: (§3) Briefly, each fly strain is divided into eight sets: three sets as the experiment, four sets as the positive control, and one set as the negative control. Flies are assayed on unpainted plywood panel boards that have been previously exposed to natural summer weather conditions for at least 10 days. […] The positive control set is treated with permethrin, geranyl acetone, rosalva or citronellol. The negative control set is treated with water. The formulation is applied at a uniform rate of 7.5 ml per 225 cm^2, sufficient to cover the entire panel without dripping. Subsequently, the treated panel boards are dried for about an hour.
(§4) In each set, 20 adult flies are placed onto the panel boards. Flies are secured with wooden embroidery hoops, covered with a coarse mesh screen cloth previously sprayed with the respective formulation. After 4 hours, flies are transferred into a clean jar. The mortality rate is measured 24 hours after the transfer, and is determined using the same procedures as are illustrated in Example 2.
(§5) Plywood panels (225 cm^2) were treated with chemicals at a rate of 1.67 mgcm^−2. Panels were treated on day 0 and held until exposure on post-treatment day. Mosquitoes were exposed to chemicals for 2 h, and mortality rate was assessed 24 h after initial exposure. Control contained formulation ingredients without semiochemicals.

Stomoxys calcitrans = settings: S. calcitrans; formulation on plywood panels at 1.67 mg cm^−2; mortality 24 h after
Experimental: as §3, §4, §5

Musca domestica [6] = settings: formulation on plywood panels, 3.33 mg cm^−2 (footnote 1.67), 2 h exposure, mortality 24 h after
Experimental: Briefly, after Musca domestica is exposed to formulations at concentration of 3.33 mg cm^−2 for 2 hours, each set is transferred into a separate glass jar, and held for another 24 hours.
as §5, with “of 1.67 mg cm^−2. Panels were” for “of 1.67 mgcm^−2. Panels were”, “0 and was held until” for “0 and held until”

Aedes aegypti [7] = settings: formulation on plywood panels at 1.67 mg cm^−2, 2 h exposure, mortality 24 h after initial exposure
Experimental: Briefly, after mosquitoes are assayed on unpainted plywood panel boards with formulation at a concentration of 1.67 mg cm^−2 for 2 hours, they are transferred into a separate glass jar, and held for another 24 hours. The mortality rate is measured daily for a continuous 4 days (Day 1 starts at 24 hours after the transfer), as is determined using the same procedures as are illustrated in Example 2.
as §5, with “of 1.67 mg cm^−2. Panels were” for “of 1.67 mgcm^−2. Panels were”, “0 and was held until” for “0 and held until”

[8] = 2 h constant exposure, glass jar
[9] = 2 h exposure, transferred to clean jars, mortality 24 h after initial exposure
[10] = 4 h constant exposure, glass jar
[11] = 24 h constant exposure, glass jar
[12] = Alachua strain, 2 h constant exposure
[13] = Alachua strain, 4 h constant exposure
[14] = Alachua strain, 24 h constant exposure
[15] = Gilchrist strain, 2 h constant exposure
[16] = Gilchrist strain, 4 h constant exposure
[17] = Gilchrist strain, 24 h constant exposure
[18] = 2 h exposure then transferred, mortality 24 h after initial exposure

Q: For permethrin [reference compound], which LC50 [1, 8] is on record?
A: 0.18 μg cm^−2

Q: What about the LC90 [1, 8] of the same substance?
A: 1.20 μg cm^−2

Q: And the LC50 [1, 9]?
A: 0.58 μg cm^−2

Q: What about the LC90 [1, 9] of the same substance?
A: 3.56 μg cm^−2

Q: And the “decline in toxicity after a 24-hour holding period subsequent to an initial 2-hour exposure” value ([1]; 2 h transferred vs 2 h constant)?
A: ~3 fold

Q: And the LC50 [1, 10]?
A: 0.10 μg cm^−2

Q: And the LC90 [1, 10]?
A: 0.95 μg cm^−2

Q: And the LC50 [1, 11]?
A: 0.03 μg cm^−2

Q: And the LC90 [1, 11]?
A: 0.41 μg cm^−2

Q: What about the LC50 [2, 12] of the same substance?
A: 4.61 μg cm^−2

Q: And the LC90 [2, 12]?
A: 14.86 μg cm^−2

Q: What about the LC50 [2, 13] of the same substance?
A: 4.10 μg cm^−2

Q: What about the LC90 [2, 13] of the same substance?
A: 15.85 μg cm^−2

Q: What about the LC50 [2, 14] of the same substance?
A: 0.99 μg cm^−2

Q: What about the LC90 [2, 14] of the same substance?
A: 3.78 μg cm^−2

Q: What about the LC50 [2, 15] of the same substance?
A: 0.41 μg cm^−2

Q: And the LC90 [2, 15]?
A: 1.82 μg cm^−2

Q: And the LC50 [2, 16]?
A: 0.39 μg cm^−2

Q: And the LC90 [2, 16]?
A: 1.51 μg cm^−2

Q: And the LC50 [2, 17]?
A: 0.16 μg cm^−2

Q: What about the LC90 [2, 17] of the same substance?
A: 0.85 μg cm^−2

Q: What about the LC50 (Aedes aegypti [3]; 2 h constant exposure) of the same substance?
A: 0.02 μg cm^−2

Q: What about the LC50 (Aedes aegypti [3]; [18]) of the same substance?
A: 0.04 μg cm^−2

Q: What about the LC50 (Aedes aegypti [3]; 4 h constant exposure) of the same substance?
A: 0.0018 μg cm^−2

Q: What about the LC50 (Aedes aegypti [3]; 24 hr constant exposure) of the same substance?
A: 0.00045 μg cm^−2

Q: And the LC50 (Aedes aegypti [4]; 2 h constant exposure)?
A: 0.012 μg cm^−2

Q: What about the LC50 (Aedes aegypti [4]; [18]) of the same substance?
A: 0.45 μg cm^−2

Q: And the LC50 (Aedes aegypti [4]; 4 h constant exposure)?
A: 0.0009 μg cm^−2

Q: What about the LC50 (Aedes aegypti [4]; 24 hr constant exposure) of the same substance?
A: 0.00031 μg cm^−2

Q: And the “% mortality” value (Musca domestica [5])?
A: 88.40a %

Q: And the “% mortality” value (Stomoxys calcitrans)?
A: 100.00a %

Q: And the “% mortality on various days following treatment” value (Musca domestica [6]; day 1)?
A: 100.00a %

Q: What about the “% mortality on various days following treatment” value (Musca domestica [6]; day 2) of the same substance?
A: 90.50a %

Q: And the “% mortality on various days following treatment” value (Musca domestica [6]; day 3)?
A: 97.50a %

Q: What about the “% mortality on various days following treatment” value (Musca domestica [6]; day 5) of the same substance?
A: 97.50a %

Q: What about the “% mortality on various days following treatment” value (Musca domestica [6]; day 7) of the same substance?
A: 97.50a %

Q: And the “% mortality on various days following treatment” value (Musca domestica [6]; day 14)?
A: 67.00a %

Q: And the “% mortality on various days following treatment” value (Aedes aegypti [7]; day 1)?
A: 100.00a %

Q: What about the “% mortality on various days following treatment” value (Aedes aegypti [7]; day 2) of the same substance?
A: 99.00a %

Q: And the “% mortality on various days following treatment” value (Aedes aegypti [7]; day 3)?
A: 98.0a %

Q: And the “% mortality on various days following treatment” value (Aedes aegypti [7]; day 4)?
A: 96.50a %
